The record followed here is patent publication US9586959B2, “Substituted tricyclic heterocycles as histamine 4 receptor inhibitors” (C&C RESEARCH LABORATORIES, priority 2011, dated 2017).

For data set [1], the system named is histamine-induced itching, ICR mice. Nature of the data set: Histamine-induced itching model in ICR mice. Format: in vivo. The settings on record: 50 mg/kg oral, histamine 300 nmol intradermal, 20 min count. On the procedure:
(§1) Female, ICR mice (8 weeks old) were purchased from OrientBio Co., Ltd. The animals were housed under conditions of controlled temperature (23±3° C.), humidity (50±5%) and lighting with food and water available ad libitum.
The hair was clipped using clippers (8000AD, THRIVE) over the rostral part of the back 24 hours before the experiment under anesthesia with isoflurane. Histamine (300 nmol) was dissolved in saline and a volume of 40 μL injected intradermally into the rostral part of the back. Mice were dosed with either vehicle (20% cyclodextrin in second distilled water) or the compound by orally administration. The Compound (50 mg/kg) dissolved in a vehicle (20% cyclodextrin in second distilled water) and administered orally at a volume of 10 mL/kg.
(§2) Mice (n=10 per group) were divided into 3 groups (normal group, control group and experimental group). The animals were randomized for similar body weight distribution. A vehicle or the compound was administered 20 minutes before injection of histamine or saline. Immediately after intradermal injection, the animals were returned to an acrylic cage (approximately 30×30×30 cm, access production) composed of four cells, to which they had been acclimated for at least 1 hour before the experiment, for observation of itch responses. A camera (Samsung, VLUUNV30) was positioned above the mice to record their response. Itch was measured by blinded counting of the number of scratching in the 20 min period immediately after the intradermal injection. A number of scratching was defined as 3 or more individual rapid scratch movements with the hind paws around the injection site (J. Allergy Clin. Immunol. 2007, 19(1), 176-183). All data were analyzed by using Excel and Prism, and all values are expressed as the mean±S.E.M. The inhibitory effect of compounds is shown as a percentage of the maximal response to histamine (100% control group).
Statistical analysis was analyzed using one-way ANOVA with Dunnett test. Values of p<0.05 were considered statistically significant.

Data set [2] can be described thus: Metabolic stability in mouse microsome. The following applies: mouse microsome 1 mg/mL, 5 μM compound, 1 mM NADPH.
Data set [3] concerns the target human histamine 3 receptor (hH3R) (Homo sapiens (Human), UniProt Q9Y5N1). The data set can be described thus: Binding affinity of human histamine 3 receptor (hH3R), [3H] labeled N-α-methylhistamine displacement. The settings on record: hH3R-overexpressed cell membrane, [3H] N-α-methylhistamine. Put shortly:
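Membranes from cells overexpressing hH3R (15 μg) were incubated with compound and [3H]N-α-methylhistamine (20 μM stock) in 50 mM Tris-HCl pH 7.4, 5 mM MgCl2 for 30 min at 27 °C. Bound radioligand was counted by scintillation after filtration; 200 μM (R)(−)-α-methylhistamine stock defined non-specific binding; IC50 derived.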

Data set [4] is described as follows: Solubility in artificial gastrointestinal tract solution. In kind it is physicochemical. The following applies: artificial gastrointestinal tract solution, thermodynamic from solid; for solubility at 1 h: fassgf or other biorelevant, first solution pH 1.2, 2 mg/mL sample, 37° C. 1 hour; for solubility at 2 h: fassif, second solution pH 6.5, 2 mg/mL sample, 37° C. 2 hours. Put shortly:
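Two media were used: pH 1.2 NaCl/HCl with Triton X-100, and pH 6.5 phosphate buffer with sodium taurocholate and lecithin. Heated sample solutions were filtered to remove undissolved compound, diluted 1:1 with CH3CN, and solubility was measured by liquid chromatography.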

Data set [5] has as its system substance P-induced itching, ICR mice. Nature of the data set: Substance P-induced itching model in ICR mice. In kind it is in vivo. The following applies: 50 mg/kg oral, substance P 100 nmol intradermal, 20 min count. The method, then: as §1
The hair was clipped using clippers (8000AD, THRIVE) over the rostral part of the back 24 hours before the experiment under anesthesia with isoflurane. Substance P (100 nmol) was dissolved in saline and a volume of 40 μL injected intradermally into the rostral part of the back. Mice were dosed with either vehicle (20% cyclodextrin in second distilled water) or the compound by orally administration. The Compound (50 mg/kg) dissolved in a vehicle (20% cyclodextrin in second distilled water) and administered orally at a volume of 10 mL/kg.
as §2, with “distribution. A Vehicle or the” for “distribution. A vehicle or the”, “injection of substance P or saline.” for “injection of histamine or saline.”, “site (J. Toxicol. Sci. 2009, 34(4), 427-431; J. Pharmacol. Sci. 2006, 100, 285-288). All data” for “site (J. Allergy Clin. Immunol. 2007, 19(1), 176-183). All data”, “control group). Statistical analysis was analyzed using one-way ANOVA with Dunnett test. Values of p<0.05 were considered statistically significant.” for “control group).”

Structures are written as SMILES. In brackets after ≈: the same amount, converted by molar mass.

human histamine 3 receptor (hH3R), sequence (Q9Y5N1 whole entry): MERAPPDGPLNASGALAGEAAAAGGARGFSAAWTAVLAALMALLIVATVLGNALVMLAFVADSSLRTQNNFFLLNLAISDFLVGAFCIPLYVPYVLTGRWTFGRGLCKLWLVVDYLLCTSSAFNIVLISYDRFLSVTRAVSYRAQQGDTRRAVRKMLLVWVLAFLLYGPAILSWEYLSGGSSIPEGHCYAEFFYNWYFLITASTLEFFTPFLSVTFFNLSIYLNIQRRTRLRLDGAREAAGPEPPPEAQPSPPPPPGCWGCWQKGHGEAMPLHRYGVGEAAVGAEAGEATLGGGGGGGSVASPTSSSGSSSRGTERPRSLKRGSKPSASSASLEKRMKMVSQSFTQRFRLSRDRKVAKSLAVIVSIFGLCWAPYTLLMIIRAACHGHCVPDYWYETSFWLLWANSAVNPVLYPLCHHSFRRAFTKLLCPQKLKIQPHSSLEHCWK

A word on the IC50: it is the concentration needed to halve the response being measured. A lower IC50 goes with inhibition by little substance. As a reminder, the solubility is the dissolved amount per volume that the medium holds. The low end stands for a poorly soluble substance, the high end for a readily soluble substance. Take `CN1CCN(c2nc3ncc(Cl)cc3n3cnnc23)CC1` [Compound 4, 8-Chloro-4-(4-methylpiperazin-1-yl)pyrido[2,3-e][1,2,4]triazolo[4,3-a]pyrazine]: in data set [1], the “Number of scratching (% changes from control group)” value is listed as 94.3^1%. For the same compound, the “Metabolic stability (CLh. int), Mouse” value in data set [2] was determined as 10220 µL/min/mg. Moreover, the IC50 in data set [3] turned out to be 90 µM. In data set [4], this compound registered a solubility at 1 h of 2010 µg/mL (≈ 6.61 mM) and a solubility at 2 h of 1240 µg/mL (≈ 4.09 mM). For the same compound, in data set [5], the “Number of scratching (% change from control group)” value came to 50.8%.

On to `Clc1cnc2nc(N3CCNCC3)c3nncn3c2c1` [Compound 7, 8-Chloro-4-(piperazin-1-yl)pyrido[2,3-e][1,2,4]triazolo[4,3-a]pyrazine], for which, in data set [1], the “Number of scratching (% changes from control group)” value was 61.2^1%. Besides, in data set [2], the “Metabolic stability (CLh. int), Mouse” value was determined as 6900 µL/min/mg. For the same compound, in data set [3], the IC50 was more than 100 µM. In data set [4], the solubility at 1 h was determined as 1370 µg/mL (≈ 4.74 mM) and the concentration in solution (solubility at 2 h) was 1150 µg/mL (≈ 3.97 mM). In data set [5], the “Number of scratching (% change from control group)” value was 60.5^1%.

Consider `CNC1CN(c2nc3ncc(Cl)cc3n3cnnc23)C1` [Compound 18, 1-(8-Chloropyrido[2,3-e][1,2,4]triazolo[4,3-a]pyrazin-4-yl)-N-methylazetidin-3-amine], for which the “Number of scratching (% changes from control group)” value in data set [1] is 84.3^1%. Also, in data set [2], the “Metabolic stability (CLh. int), Mouse” value was 1760 µL/min/mg. Besides, in data set [3], the IC50 is more than 100 µM. In data set [4], the solubility at 1 h was found to be 1590 µg/mL (≈ 5.5 mM) and the solubility at 2 h is 791 µg/mL (≈ 2.73 mM). Further, the “Number of scratching (% change from control group)” value in data set [5] is 42.6%.

With `CNC1CN(c2nc3ncc(Br)cc3n3cnnc23)C1` [Compound 24, 1-(8-Bromopyrido[2,3-e][1,2,4]triazolo[4,3-a]pyrazin-4-yl)-N-methylazetidin-3-amine], the “Number of scratching (% changes from control group)” value in data set [1] is 93.6^1%. Further, in data set [2], the “Metabolic stability (CLh. int), Mouse” value was 3050 µL/min/mg. This compound also gave an IC50 in data set [3] of more than 100 µM. Moreover, in data set [4], the concentration in solution (solubility at 1 h) came to 1690 µg/mL (≈ 5.06 mM) and the solubility at 2 h came to 939 µg/mL (≈ 2.81 mM). Also, in data set [5], the “Number of scratching (% change from control group)” value is 74.5^1%.

Take `CNC1CN(c2nc3ncc(I)cc3n3cnnc23)C1` [Compound 48, 1-(8-Iodopyrido[2,3-e][1,2,4]triazolo[4,3-a]pyrazin-4-yl)-N-methylazetidin-3-amine]: the “Number of scratching (% changes from control group)” value in data set [1] is 67.3^1%. The “Metabolic stability (CLh. int), Mouse” value in data set [2] came out at 5310 µL/min/mg. In data set [3], the IC50 was more than 100 µM. In data set [4], this compound came in with a solubility at 1 h of 1610 µg/mL (≈ 4.22 mM) and a solubility at 2 h of 677 µg/mL (≈ 1.78 mM). The “Number of scratching (% change from control group)” value in data set [5] was 33.5%.

In the case of `CNC1CN(c2nc3ncc(Br)cc3n3nnnc23)C1` [Compound 95, 1-(8-Bromopyrido[2,3-e]tetrazolo[1,5-a]pyrazin-4-yl)-N-methylazetidin-3-amine], the “Number of scratching (% changes from control group)” value in data set [1] is recorded as 98.2^1%. For the same compound, the “Metabolic stability (CLh. int), Mouse” value in data set [2] was determined as 18100 µL/min/mg. Also, the IC50 in data set [3] was more than 100 µM. In data set [4], this compound displayed a solubility at 1 h of 1790 µg/mL (≈ 5.34 mM) and a solubility at 2 h of 1130 µg/mL (≈ 3.36 mM). In addition, the “Number of scratching (% change from control group)” value in data set [5] was 80.7^1%.
